Source: US20250380696A1, “METHOD FOR CONTROLLING UNDESIRED PLANTS AND PROMOTING GROWTH OF USEFUL PLANTS” (ISHIHARA SANGYO KAISHA, LTD., priority 2022, published 2025)

Tests used:
Format in all cases: in vivo
[1] = system: Italian ryegrass (Lolium multiflorum); test: (7) Herbicidal effect test, pot, spray at 2.8 to 3.0 leaf stage; conditions: 7th day after spraying
From the text: (§1) [formula] • X: growth inhibition rate when treated with α (g/ha) of compound A, • Y: growth inhibition rate when treated with β (g/ha) of compound B, • E: growth inhibition rate expected when treated with α (g/ha) of compound A and β (g/ha) of compound B (expected value).
Upland soil was put in a 1/1,000,000 hectare pot, and seeds of Italian ryegrass (Lolium multiflorum) were sown. When Italian ryegrass reached 2.8 to 3.0 leaf stage, a water-based suspension containing tiafenacil as the active ingredient, prepared by a conventional method for preparing a water-based suspension, and an emulsifiable concentrate containing pethoxamid as the active ingredient (tradename: Successor 600, manufactured by Stahler Suisse SA) or an emulsifiable concentrate containing dimethenamid-P as the active ingredient (tradename: Fieldstar P emulsifiable concentrate, manufactured by BASF) were diluted with water (in an amount corresponding to 200 liter per hectare) containing 0.5 vol % of an agricultural spreader (tradename: Destiny HC, manufactured by Winfield Solutions, LLC.) and sprayed by a small spray gun (model: W-101-132G, manufactured by ANEST IWATA Corporation). On the 7th day after spraying, the state of growth of the Italian ryegrass was visually observed, and the growth inhibition rate (%) was obtained in accordance with the evaluation standards described in the above (1) herbicidal effect test, and the results are shown in Table 7. Further, the expected value of the growth inhibition rate (%) was calculated in accordance with the Colby's formula described in the above (1) herbicidal effect test, and the results are also shown in Table 7.

[2] = system: goosegrass (Eleusine indica); test: (11) Herbicidal effect test, pot, spray at 7.0 to 8.3 leaf stage; conditions: 3rd day after spraying
From the text: as §1
Upland soil was put in a 1/1,000,000 hectare pot, and seeds of goosegrass (Eleusine indica) were sown. When goosegrass reached 7.0 to 8.3 leaf stage, a water-based suspension containing tiafenacil as the active ingredient, prepared by a conventional method for preparing a water-based suspension, and a wettable powder containing tri-allate as the active ingredient, prepared by a conventional method for preparing a wettable powder, an emulsifiable concentrate containing pethoxamid as the active ingredient (tradename: Successor 600, manufactured by Stähler Suisse SA) or an emulsifiable concentrate containing dimethenamid-P as the active ingredient (tradename: Fieldstar P emulsifiable concentrate, manufactured by BASF) were diluted with water (in an amount corresponding to 200 liter per hectare) containing 0.5 vol % of an agricultural spreader (tradename: Destiny HC, manufactured by Winfield Solutions, LLC.) and sprayed by a small spray gun (model: W-101-132G, manufactured by ANEST IWATA Corporation). On the 3rd day after spraying, the state of growth of the goosegrass was visually observed, and the growth inhibition rate (%) was obtained in accordance with the evaluation standards described in the above (1) herbicidal effect test, and the results are shown in Table 11. Further, the expected value of the growth inhibition rate (%) was calculated in accordance with the Colby's formula described in the above (1) herbicidal effect test, and the results are also shown in Table 11.

[3] = system: waterhemp (Amaranthus tuberculatus); test: (13) Herbicidal effect test, pot, spray at 5.0 to 8.0 leaf stage; conditions: 4th day after spraying
From the text: as §1
Upland soil was put in a 1/1,000,000 hectare pot, and seeds of waterhemp (Amaranthus tuberculatus) were sown. When the waterhemp reached 5.0 to 8.0 leaf stage, a water-based suspension containing tiafenacil as the active ingredient, prepared by a conventional method for preparing a water-based suspension, and a wettable powder containing tri-allate as the active ingredient, prepared by a conventional method for preparing a wettable powder, an emulsifiable concentrate containing pethoxamid as the active ingredient (tradename: Successor 600, manufactured by Stähler Suisse SA) or an emulsifiable concentrate containing dimethenamid-P as the active ingredient (tradename: Fieldstar P emulsifiable concentrate, manufactured by BASF) were diluted with water (in an amount corresponding to 200 liter per hectare) containing 0.5 vol % of an agricultural spreader (tradename: Destiny HC, manufactured by Winfield Solutions, LLC.) and sprayed by a small spray gun (model: W-101-132G, manufactured by ANEST IWATA Corporation). On the 4th day after spraying, the state of growth of the waterhemp was visually observed, and the growth inhibition rate (%) was obtained in accordance with the evaluation standards described in the above (1) herbicidal effect test, and the results are shown in Table 13. Further, the expected value of the growth inhibition rate (%) was calculated in accordance with the Colby's formula described in the above (1) herbicidal effect test, and the results are also shown in Table 13.

[4] = system: forage corn (cultivar: SNOW DENT OTOHA); test: (17) Plant growth promotion effect test (corn), Italian ryegrass sown; conditions: 20th day after the sowing, above-ground part
From the text: Upland soil was put in a 1/1,000,000 hectare pot, and seeds of Italian ryegrass (Lolium multiflorum) were sown. When the Italian ryegrass reached 2.5 to 3.0 leaf stage, a water-based suspension containing tiafenacil as the active ingredient, prepared by a conventional method for preparing a water-based suspension, and an emulsifiable concentrate containing S-metolachlor as the active ingredient (tradename: Dual Gold, manufactured by Syngenta) or a wettable powder containing metribuzin as the active ingredient (tradename: SENCOR wettable powder, manufactured by Bayer Crop Science) were diluted with water (in an amount corresponding to 200 liter per hectare) containing 0.5 vol % of an agricultural spreader (tradename: Destiny HC, manufactured by Winfield Solutions, LLC.) and sprayed by a small spray gun (model: W-101-132G, manufactured by ANEST IWATA Corporation). Seeds of forage corn (cultivar: SNOW DENT OTOHA, manufactured by SNOW BRAND SEED Co., Ltd.) were sown in the pot after spraying. On the 20th day after the sowing, the above-ground part of the forage corn was reaped, and its weight was measured to obtain the raw weight.

**Q.** Which results are given for COC(=O)CCNC(=O)C(C)Sc1cc(-n2c(=O)cc(C(F)(F)F)n(C)c2=O)c(F)cc1Cl (stereo not drawn) [tiafenacil]?
**A.** Growth inhibition rate (%) Measured value ([1]; Dose 6.25 g/ha): 15%; Growth inhibition rate (%) Measured value ([1]; Dose 12.5 g/ha): 37%; Growth inhibition rate (%) Measured value ([1]; Dose 25 g/ha): 33%; Growth inhibition rate (%) Measured value ([2]; Dose 6.25 g/ha): 77%; Growth inhibition rate (%) Measured value ([3]; Dose 6.25 g/ha): 73%; Raw weight (g) of forage corn ([4]; Dose 12.5 g/ha): 8.5 g

**Q.** For CCOCCN(C(=O)CCl)C(=C(C)C)c1ccccc1 [pethoxamid], which “Growth inhibition rate (%) Measured value” ([1]; Dose 93.75 g/ha) is on record?
**A.** 0%

**Q.** And the “Growth inhibition rate (%) Measured value” ([1]; Dose 187.5 g/ha)?
**A.** 0%

**Q.** What about the “Growth inhibition rate (%) Measured value” ([1]; Dose 375 g/ha) of the same compound?
**A.** 7%

**Q.** And the “Growth inhibition rate (%) Measured value” ([1]; Dose 750 g/ha)?
**A.** 7%

**Q.** And the “Growth inhibition rate (%) Measured value” ([1]; Dose 1500 g/ha)?
**A.** 12%

**Q.** What about the “Growth inhibition rate (%) Measured value” ([2]; Dose 93.8 g/ha) of the same compound?
**A.** 0%

**Q.** And the “Growth inhibition rate (%) Measured value” ([2]; Dose 375 g/ha)?
**A.** 0%

**Q.** What about the “Growth inhibition rate (%) Measured value” ([2]; Dose 750 g/ha) of the same compound?
**A.** 0%

**Q.** What about the “Growth inhibition rate (%) Measured value” ([3]; Dose 93.8 g/ha) of the same compound?
**A.** 0%

**Q.** What about the “Growth inhibition rate (%) Measured value” ([3]; Dose 375 g/ha) of the same compound?
**A.** 0%

**Q.** And the “Growth inhibition rate (%) Measured value” ([3]; Dose 750 g/ha)?
**A.** 0%

**Q.** How did the “Growth inhibition rate (%) Measured value” ([1]; Dose 60 g/ha) turn out when COC[C@H](C)N(C(=O)CCl)c1c(C)csc1C [dimethenamid-P] was run?
**A.** 0%

**Q.** And the “Growth inhibition rate (%) Measured value” ([1]; Dose 120 g/ha)?
**A.** 3%

**Q.** And the “Growth inhibition rate (%) Measured value” ([1]; Dose 240 g/ha)?
**A.** 8%

**Q.** And the “Growth inhibition rate (%) Measured value” ([1]; Dose 750 g/ha)?
**A.** 12%

**Q.** What about the “Growth inhibition rate (%) Measured value” ([1]; Dose 1500 g/ha) of the same compound?
**A.** 15%

**Q.** And the “Growth inhibition rate (%) Measured value” ([2]; Dose 60 g/ha)?
**A.** 0%

**Q.** And the “Growth inhibition rate (%) Measured value” ([2]; Dose 375 g/ha)?
**A.** 0%

**Q.** What about the “Growth inhibition rate (%) Measured value” ([2]; Dose 750 g/ha) of the same compound?
**A.** 0%

**Q.** And the “Growth inhibition rate (%) Measured value” ([3]; Dose 60 g/ha)?
**A.** 0%

**Q.** What about the “Growth inhibition rate (%) Measured value” ([3]; Dose 375 g/ha) of the same compound?
**A.** 0%

**Q.** And the “Growth inhibition rate (%) Measured value” ([3]; Dose 750 g/ha)?
**A.** 0%

**Q.** How did the “Raw weight (g) of forage corn” value ([4]; Dose 18.75 g/ha) turn out when CSc1nnc(C(C)(C)C)c(=O)n1N [metribuzin] was run?
**A.** 6.2 g

**Q.** How did the “Raw weight (g) of forage corn” value ([4]; Dose 750 g/ha) turn out when CCc1cccc(C)c1N(C(=O)CCl)[C@@H](C)COC [S-metolachlor] was run?
**A.** 5.1 g

**Q.** For CC(C)N(C(=O)SCC(Cl)=C(Cl)Cl)C(C)C [tri-allate], which inhibition at 75 g/ha ([2]; Eleusine indica, Dose 75 g/ha, read-out: Growth inhibition rate (%) Measured value) is on record?
**A.** 0%

**Q.** And the inhibition at 625 g/ha ([2]; Eleusine indica, Dose 625 g/ha, read-out: Growth inhibition rate (%) Measured value)?
**A.** 0%

**Q.** What about the inhibition at 1250 g/ha ([2]; Eleusine indica, Dose 1250 g/ha, read-out: Growth inhibition rate (%) Measured value) of the same compound?
**A.** 5%

**Q.** And the inhibition at 75 g/ha ([3]; Amaranthus tuberculatus, Dose 75 g/ha, read-out: Growth inhibition rate (%) Measured value)?
**A.** 0%

**Q.** What about the inhibition at 625 g/ha ([3]; Amaranthus tuberculatus, Dose 625 g/ha, read-out: Growth inhibition rate (%) Measured value) of the same compound?
**A.** 0%

**Q.** What about the inhibition at 1250 g/ha ([3]; Amaranthus tuberculatus, Dose 1250 g/ha, read-out: Growth inhibition rate (%) Measured value) of the same compound?
**A.** 0%
